Among the data in US20060142247A1, “Tricyclic heterocycles” (priority 2004, published 2006) are IC50 values, retold here.

The assay addresses T1, Aurora A (Homo sapiens, UniProt O14965).
T1 construct: C-terminally Histidine4 (His4)-tagged Aurora A full-length protein; His4 (C)
T1 sequence (O14965 1-403): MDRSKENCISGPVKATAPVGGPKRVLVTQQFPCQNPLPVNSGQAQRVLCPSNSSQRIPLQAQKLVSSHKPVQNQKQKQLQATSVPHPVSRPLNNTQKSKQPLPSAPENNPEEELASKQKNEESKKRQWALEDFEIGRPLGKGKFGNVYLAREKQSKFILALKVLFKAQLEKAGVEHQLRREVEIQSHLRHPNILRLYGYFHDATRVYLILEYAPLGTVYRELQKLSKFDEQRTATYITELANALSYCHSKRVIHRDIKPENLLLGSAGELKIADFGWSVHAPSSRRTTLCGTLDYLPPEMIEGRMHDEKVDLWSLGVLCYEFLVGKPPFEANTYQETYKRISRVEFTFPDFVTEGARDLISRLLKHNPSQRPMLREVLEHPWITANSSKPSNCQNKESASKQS
The assay is described as follows: IC50 determination for inhibitors of Aurora A (96 MTP-ELISA). Particulars: His4-tagged full-length Aurora A 250 ng/ml, PKB-GSK2 200 nM, ATP 4 μM, 90 min room temperature, read-out: IC50 Aurora A kinase inhibition. It counts as biochemical. The protocol: Aurora A is a serine threonine kinase involved in spindle assembly and chromosome segregation. The assay is a typically ELISA-type assay where biotinylated substrate (PKB-GSK2) is phosphorylated. Phosphorylation is detected by peroxidase (POD) labelled polyclonal antibody (PAK<M-Ig>S-IgG-POD) and phosphopeptide monoclonal antibody (Mab) (MAK<P-GSK>M-27E5-IgG). The assay is validated for IC50-determination.
Assay plates: 96-well polystyrene plates, streptavidin-coated,
Samples: 10 mM in dimethylsulfoxide (DMSO)
Aurora A-His-4: C-terminally Histidine4 (His4)-tagged Aurora A full-length protein, stock solution 0.7 mg/ml, final conc.: 250 ng/ml
PKB-GSK2: biotinylated peptide derived from human GSK3-alpha sequence (Biotin-SGRARTSSFAEPGG-CONH2), stock solution 600 μM, final conc.: 200 nM
PAK<M-Ig>S-IgG-POD: Anti-mouse IgG, horse radish peroxidase(HRP)-linked Antibody, diluted in 3% BSA/PBS-T (1:10000), (Cell Signaling, Cat. No.: 7076)
MAK<P-GSK>M-27E5-IgG: Phospho-GSK-3-alpha (Ser 21) (27E5) Monoclonal Antibody, stock solution 1.85 mg/ml, diluted in 3% BSA/PBS-T (1:6000), final conc.: 0.31 μg/ml, (Cell Signaling, Cat. No.: 9337B)
ATP: Adenosine-5′-triphosphate 1 mM, diluted in kinase buffer, (Roche Diagnostics GmbH, Cat. No.: 127531-001,), final conc.: 4 μM
TRIS: 2-Amino-2-hydroxymethyl-1,3-propoanediol (“tris-(hydroxymethyl)-aminomethane”) (MERCK, Cat. No.: 108382.2500)
BSA: Bovine Serum Albumin Fraction V, fatty acid free (Roche Diagnostics GmbH, Cat. No. 9100221)
EDTA Titriplex III (di-Sodium-EDTA di-Hydrate), 120 mM, (MERCK, Cat. No.: 1.08418.1000)
ABTS buffer: ABTS (2,2′-azino-bis(3-ethylbenzthiazoline-6-sulfonic acid)) 16.7 mg/ml (Roche Diagnostics GmbH, Cat. No.: 1204530) • ABTS tablets: dissolve one ABTS tablet in 50 ml of working solution (ABTS buffer) (Roche Diagnostics GmbH, Cat. No.: 1112422 ) • Tween 20: Polysorbat 20 (Roche Diagnostics GmbH, Cat. No.: 10006394-001) • DTT: 1,4-Dithiothreitol (Roche Diagnostics GmbH, Cat. No.: 197777) • MgCl2×6H2O MERCK, Cat. No.: 105833.1000 • Kinase buffer: 50 mM TRIS, 10 mM MgCl2, 1 mM DTT, 0.1% Tween 20, pH 7.8 PBS-T (=Wash buffer) (PBS-T)10 g/l PBS(Phosphate buffered saline) with 0.033% Tween 20 • 3% BSA/PBS-T: 3% BSA dissolved in PBS-T Method
This assay is performed in 96-well format for IC50 determination with 5 samples (each with 8 concentrations by twofold testing), 100 μl incubation volume and the following plate layout:
S samples, with ATP, 1% DMSO, final conc.: a=100 μM, b=20 μM, c=4 μM, d=0.8 μM, e=0.16 μM, f=0.032 μM, g=0.0064 μM, h=0.00128 μM Step/Action • (1) Sample preparation: add 24 μl per well samples (descending sequence) diluted in kinase buffer to assay plate (final conc. for DMSO 1%). • 2. Add directly 16 μl Aurora-A-his-4 diluted in kinase buffer to assay plate. • 3. Add directly 40 μl per well PKB-GSK2/ATP mixture to assay plate, (final conc.: Aurora A=250 ng/ml, GSK2=200 nM, ATP=4 μM). Negative control: without ATP. • 4. Incubate assay plate for exactly 90 min at room temperature. • 5. Stop reaction by adding 20 μl EDTA in all wells. • 6. Wash assay plate 3× with 200 μl washing buffer per well. • 7. Add 100 μl MAK<P-GSK>M27E5-IgG (1:10000) and PAK<M-Ig>S-IgG-POD (1:6000) dissolved in 3% BSA/PBS-T to assay plate per well. • 8. Incubate assay plate for 60 min at room temperature. • 9. Wash assay plate 3× with 200 μl washing buffer per well • 10. Add 100 μl ABTS solution to assay plate per well, incubate for approx. 4 min at RT on MTP shaker. • 11. Measure absorption at 405/492 nm. • 12. Calculate % inhibition as: (1−(Esample−ENC)/(EPC−ENC))×100 1)
13. Calculate IC50 using a non-linear curve fit (XLfit software (ID Business Solution Ltd., Guilford, Surrey, UK))
On the technique in general: In an ELISA, binding on a coated surface is turned into a signal by an enzyme label.

Usually IC50 stands for the midpoint of a concentration-inhibition curve. For the compound `CN(C)CCNC(=O)CN1C(=O)C(C)(C)c2cc3nc(-c4n[nH]c5ccccc45)[nH]c3cc21` [Example 38, N-(2-Dimethylamino-ethyl)-2-[2-(1H-indazol-3-yl)-7,7-dimethyl-6-oxo-6,7-dihydro-3H-imidazo[4,5-f]indol-5-yl]-acetamide], the IC50 was in the range of 1 to 100 nM.
As for `CN1CCN(C(=O)CN2C(=O)C(C)(C)c3cc4nc(-c5n[nH]c6ccccc56)[nH]c4cc32)CC1` [Example 42, 2-(1H-Indazol-3-yl)-7,7-dimethyl-5-[2-(4-methyl-piperazin-1-yl)-2-oxo-ethyl]-5,7-dihydro-3H-imidazo[4,5-f]indol-6-one], the figure is 1 to 100 nM; as for `COCCN1C(=O)C(C)(C)c2cc3nc(-c4n[nH]c5ccccc45)[nH]c3cc21` [Example 18, 2-(1H-Indazol-3-yl)-5-(2-methoxy-ethyl)-7,7-dimethyl-5,7-dihydro-3H-imidazo[4,5-f]indol-6-one], 1 to 100 nM.
As for `CC1(C)C(=O)N(CC(=O)N2CCCCC2)c2cc3[nH]c(-c4n[nH]c5ccccc45)nc3cc21` [Example 44, 2-(1H-Indazol-3-yl)-7,7-dimethyl-5-(2-oxo-2-piperidin-1-yl-ethyl)-5,7-dihydro-3H-imidazo[4,5-f]indol-6-one], the figure is 1 to 100 nM; as for `CC1(C)C(=O)N(Cc2nnn[nH]2)c2cc3[nH]c(-c4n[nH]c5ccccc45)nc3cc21` [Example 33, 2-(1H-Indazol-3-yl)-7,7-dimethyl-5-(1H-tetrazol-5-ylmethyl)-5,7-dihydro-3H-imidazo[4,5-f]indol-6-one], 1 to 100 nM.
For the compound `CC1(C)C(=O)N(CCNC(=O)c2ccccc2)c2cc3[nH]c(-c4n[nH]c5ccccc45)nc3cc21` [Example 53, N-{2-[2-(1H-Indazol-3-yl)-7,7-dimethyl-6-oxo-6,7-dihydro-3H-imidazo[4,5-f]indol-5-yl]-ethyl}-benzamide], the IC50 is 1 to 100 nM.
